This is an account of results in PubChem BioAssay (NCI).

Structures are written as SMILES.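 In this assay, cells in 96-well plates receive the compound at five concentrations for 48 hours. Endpoints are linearly interpolated between the surrounding concentrations. Here, GI50 denotes the concentration required for 50% inhibition of growth. TGI marks complete inhibition of growth.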

Holding throughout (test): growth of human tumour cells (NCI), 48 h
Test [1] concerns BT-549 breast.
In test [2] the test system is EKVX NSCLC.
Test [3] deals with KM20L2 colon.
In test [4] the test system is LXFL 529 NSCLC.
Test [5] deals with HOP-18 NSCLC.
Test [6] concerns M19-MEL melanoma.
Test [7] has as its system OVCAR-3 ovarian.
Test [8] concerns SNB-78 CNS.
Test [9] deals with COLO 205 colon.
For test [10], the system named is DMS 273 small cell lung.
Test [11] relates to SK-MEL-28 melanoma.
Test [12] relates to DLD-1 colon.
Test [13] concerns RXF-631 renal.
Test [14] has as its system HS 578T breast.
Test [15] concerns SF-295 CNS.
The test system of test [16] is XF 498 CNS.
Test [17] relates to DMS 114 small cell lung.

Regarding `CCOC(=O)NC1C2CC(=O)OC(O2)C1OC(C)=O` (configuration not stated), the GI50 in test [1] and in test [14] was above 100 µM each time. The TGI in test [1], in test [2], in [3], in test [4], in test [5] and in test [6] was above 100 µM each time. In addition, the TGI in [7], in [8], in [9], in test [10], in test [11] and in test [12] was above 100 µM throughout. The TGI in test [13], in [14] and in [15] was above 100 µM in each case.

With `CCOC(=O)N1c2c(ccn2C)-c2ccn(C)c2N1C(=O)OCC`, the TGI came to 30.7 µM in test [16]; 27.8 µM in [3]; 30.9 µM in test [4]; 80 µM in [6]; 27.1 µM in [7]; 57.1 µM in test [9]. The TGI is 29.5 µM in test [12], 45.8 µM in [13] and 29.7 µM in test [15].

Consider `CC(=O)NC1=C(NC(C)(C)C)C(=O)c2ccccc2C1=O`, for which the TGI came out at 23.1 µM in test [16]; 99.2 µM in test [2]; 38 µM in test [3]; 31.7 µM in test [4]; 28.4 µM in test [5]; 54.3 µM in test [17]. Further, the TGI in test [6] was 28.7 µM; in [7] it was 33.1 µM; in test [8], 99.1 µM; in test [9], above 100 µM; in [10], 45.4 µM; in test [11], 43.1 µM. Further, the TGI in [12] is 34.3 µM; in [15], above 100 µM.

Consider `Cc1ccc(/C(O)=C/c2nc3c(nc2NC24CC5CC(CC(C5)C2)C4)c(=O)oc2ccccc23)cc1`, for which the TGI in test [16], in [2], in test [3], in test [4], in test [17] and in test [6] was above 100 µM in each case. Also, the TGI in [7], in test [9], in test [10], in test [11] and in test [12] was above 100 µM throughout.

`O=C1[C@H]2ON(c3ccccc3)C(c3ccccc3)[C@H]2C(=O)N1c1ccc(Cc2ccc(N3C(=O)[C@@H]4ON(c5ccccc5)C(c5ccccc5)[C@@H]4C3=O)cc2)cc1` (some centres not stated): the TGI in test [3], in test [4], in test [5], in test [17], in [7] and in test [8] was above 100 µM in each case. Moreover, the TGI in test [9], in test [10], in [11], in test [12], in [13] and in test [15] was above 100 µM in each case.

For the molecule `O=C1Cc2c([nH]c3ccccc23)-c2ccccc2N1`, the TGI was 91.8 µM in test [16]; above 100 µM in [2]; 50.7 µM in test [3]; above 100 µM in test [4]; above 100 µM in test [5]; above 100 µM in test [6]. In addition, the TGI in test [7] is 68.2 µM; in test [8], above 100 µM; in [9], 45.9 µM; in test [10] it was above 100 µM; in test [11], above 100 µM; in test [12], above 100 µM. For the same molecule, the TGI in [15] was above 100 µM.

Take `CCOC(=O)/C(=C\c1ccc(N(CCC#N)CCC#N)cc1)NC(=O)c1cc([N+](=O)[O-])ccc1Cl`: the TGI in test [2], in test [3], in test [4], in test [5], in [17] and in test [6] was above 100 µM throughout. For the same molecule, the TGI in [7], in test [8], in test [9], in test [10], in [11] and in test [12] was above 100 µM each time. Further, the TGI in test [13] and in test [15] was above 100 µM throughout.

For the molecule `CC(=O)OC[C@]1(C)CCCC2(C)C1CCC1C=C(C)[C@H]3CCC12C3` (some centres not stated), the TGI in test [3], in test [4], in [6], in test [7], in test [8] and in [9] was above 100 µM throughout. The TGI in [11], in [12] and in test [15] was above 100 µM in each case.

Regarding `COC(=O)[C@]12CC[C@H]3CC[C@H]([C@H]31)[C@H](c1ccccc1)N2`, the TGI was determined as 34.3 µM in test [1]; 33.1 µM in test [2]; 29.3 µM in test [7]; 30.8 µM in [9]; 52.2 µM in test [11]; 49.8 µM in [14]. Besides, in test [15], the TGI worked out at 32.3 µM.

On to `Cc1nc(C(N)=S)sc1C(=O)CC(=O)C(=O)Nc1ccccc1[N+](=O)[O-]`, for which the TGI in test [2], in test [3], in test [4], in [5], in test [17] and in [6] was above 100 µM each time. The TGI in test [7], in [8], in test [10], in test [11], in test [12] and in test [13] was above 100 µM throughout. Further, the TGI in test [15] is above 100 µM.

As for `C/C=C1\C=C(OC)CN(CCc2c[nH]c3ccccc23)C1`, the TGI in [16], in test [2], in [3], in test [4], in [17] and in [6] was above 100 µM in each case. Further, the TGI in test [7], in test [9], in test [10], in test [12] and in [15] was above 100 µM in each case.

In the case of `Cc1ccccc1NC(=O)c1c(C)oc2c1C(=O)c1ccccc1C2=O`, the TGI in [16] is above 70 µM; in [2], above 100 µM; in test [3] it was above 100 µM; in test [4], above 55.9 µM; in test [17], 68 µM; in test [6] it was 26.6 µM. Moreover, the TGI is above 72.1 µM in test [7]; 5.98 µM in test [8]; above 100 µM in test [9]; above 100 µM in test [10]; above 100 µM in test [11]; above 68.6 µM in test [12]. This molecule also yielded a TGI in test [15] above 100 µM.

Take `Oc1cc2c3c(c1)CCCN3CCC2`: the TGI in test [1], in test [2], in test [7], in [9], in [11] and in [14] was above 10 µM each time. The same molecule returned a TGI in [15] above 10 µM.

With `O=C(c1c(F)c(F)c(F)c(F)c1F)N1CCN(C(=O)c2c(F)c(F)c(F)c(F)c2F)C1=S`, the TGI in [1] came out at 27.8 µM; in test [2], 32.9 µM; in test [7], 12 µM; in test [9], 18.6 µM; in test [11], 14.9 µM; in test [14] it was 18.9 µM. This molecule also showed a TGI in test [15] of 28.5 µM.
